The values that follow come from ChEMBL document CHEMBL5226321, “Ivermectin: A Promising Therapeutic for Fighting Malaria. Current Status and Perspective” (J Med Chem, 2021).

≈ marks a conversion by molar mass, not a printed value.

One may read the IC50 as the concentration that gives 50% inhibition.

Experiment [1] has as its system Plasmodium vivax. In words: Antimalarial activity against Plasmodium vivax assessed as inhibition of sporogony in Anopheles sp. mosquito fed with blood containing plasma isolated from compound treated parasite-infected human observed after 7 days. In kind it is functional, organism-based.
Experiment [2] concerns Plasmodium falciparum. In words: Antimalarial activity against asexual blood stage chloroquine-resistant Plasmodium falciparum Dd2 assessed as parasite growth inhibition by SYBR Green staining based fluorescence analysis. In kind it is functional, organism-based.
The subject of experiment [3] is Plasmodium falciparum. In words: Antimalarial activity against asexual blood stage mefloquine-resistant Plasmodium falciparum Dd2 assessed as parasite growth inhibition by SYBR Green staining based fluorescence analysis. In kind it is functional, organism-based.
Experiment [4] deals with Plasmodium falciparum. In words: Antimalarial activity against asexual blood stage chloroquine-sensitive Plasmodium falciparum 3d7 assessed as parasite growth inhibition by SYBR Green staining based fluorescence analysis. In kind it is functional, organism-based.
Experiment [5] relates to Huh-7. In words: Antimalarial activity against liver stage Plasmodium berghei infected in human Huh-7 cells assessed as inhibition by bioluminescence assay. In kind it is functional, cell-based.
The nature of experiment [6]: Antimalarial activity against Plasmodium cynomolgi infected in rhesus macaque hepatocytes assessed as inhibition of liver-stage schizonts by Giemsa staining based microscopic analysis. As to conditions: hepatocyte. Format: functional, cell-based, Macaca mulatta.
Experiment [7] concerns Plasmodium falciparum. In words: Antimalarial activity against asexual blood stage Plasmodium falciparum assessed as parasite growth inhibition incubated for 72 hrs by HRP2 - ELISA. Format: functional, organism-based. In general terms: An ELISA detects its analyte on a solid surface through an enzyme-linked reagent.
Experiment [8] has as its system Plasmodium falciparum. In words: Antimalarial activity against Plasmodium falciparum late stage IV-V gametocytes assessed as parasite growth inhibition incubated for 48 hrs by BacTiterGlo assay. Format: functional, organism-based.
Experiment [9] concerns Huh-7. In words: Antiplasmodial activity against liver stage Plasmodium berghei infected in human Huh-7 cells assessed as inhibition of parasite infection incubated for 48 hrs by bioluminescence assay. Format: functional, cell-based.
The subject of experiment [10] is Plasmodium falciparum. In words: Antiplasmodial activity against asexual blood stage Plasmodium falciparum 3d7 assessed as parasite growth inhibition incubated for 48 hrs by bioluminescence assay. Format: functional, organism-based.
The test system of experiment [11] is Anopheles gambiae. In words: Insecticidal in Anopheles gambiae G3 assessed as lethal concentration fed with compound treated human blood at 150 microg/kg administered once. In kind it is functional. As to conditions: dose 150 µg/kg.
The test system of experiment [12] is Anopheles gambiae. In words: Insecticidal in Anopheles gambiae G3 assessed as sublethal dose re-blood fed on human arm. Format: functional.
Experiment [13] deals with Culex pipiens. In words: Insecticidal in Culex pipiens larvae measured after 48 hrs. In kind it is functional.
In experiment [14] the test system is Anopheles stephensi. In words: Insecticidal in Anopheles stephensi larvae measured after 48 hrs. In kind it is functional.
The test system of experiment [15] is Aedes aegypti. In words: Insecticidal in Aedes aegypti larvae measured after 48 hrs. Format: functional.

For IVERMECTIN, the 50% inhibitory concentration (IC50) amounted to 0.00568 µg/mL in experiment [1]; 2850 nM in [2]; 1920 nM in [3]; 1560 nM in experiment [4]; 2100 nM in experiment [5] (huh-7); 10400 nM in experiment [6]. In addition, the IC50 in experiment [7] came out at 100 nM; in experiment [8], 500 nM; in experiment [9], 2100 nM; in experiment [10], 1560 nM.

Turning to `C=C(C)[C@H]1C(=O)c2c3c(cc4c5c(n1c24)C[C@@]1(C)C5CC[C@H]2[C@](C)(/C=C/C=C(\C)C(=O)NC(C)(C)C)[C@@H](O)CC[C@@]21C)C1=CC(C)(C)OC(C)(C)C1[C@@H]3O` (some centres not stated), the LC50 in experiment [11] came to 0.76 µg/mL (≈ 1.03 µM).

`CCN(Cc1ccc(Cl)nc1)/C(=C/[N+](=O)[O-])NC` [NITENPYRAM]: in [11], the LC50 came out at 0.111 µg/mL (≈ 0.41 µM). Also, in experiment [12], the LC25 amounted to 0.07865 µg/mL (≈ 0.291 µM).

In the case of `CO[C@H]1C[C@H](O[C@H]2[C@H](C)O[C@@H](O[C@@H]3/C(C)=C/C[C@@H]4C[C@@H](C[C@]5(C=C[C@H](C)[C@@H](C(C)C)O5)O4)OC(=O)[C@@H]4C=C(C)[C@@H](O)[C@H]5OC/C(=C\C=C\[C@@H]3C)[C@]54O)C[C@@H]2OC)O[C@@H](C)[C@@H]1O` [ABAMECTIN COMPONENT B1B], the LC50 in experiment [13] is given as 2.42 ppb; in experiment [14], 2.9 ppb; in [15] it was 10.4 ppb.

Consider `COc1cc(NC(C)CCCN)c2ncccc2c1` (configuration not stated) [PRIMAQUINE], for which the 50% inhibitory concentration (IC50) in experiment [5] (Homo sapiens, Huh-7) was 2400 nM.
